Assay results: patent US6043228A, “O^6 -substituted guanine derivatives, a process for their preparation and their use in treating tumor cells” (Cancer Research Campaign Technology Limited, priority 1993, dated 2000)

How the values were obtained:
[1] = target: T1, recombinant human ATase (Homo sapiens, UniProt P16455); test: In vitro ATase inactivation assay (incubation with inactivators and ATase assay); type: biochemical; conditions: recombinant human ATase, standard conditions
T1 construct: made in house
T1 sequence (P16455 1-207): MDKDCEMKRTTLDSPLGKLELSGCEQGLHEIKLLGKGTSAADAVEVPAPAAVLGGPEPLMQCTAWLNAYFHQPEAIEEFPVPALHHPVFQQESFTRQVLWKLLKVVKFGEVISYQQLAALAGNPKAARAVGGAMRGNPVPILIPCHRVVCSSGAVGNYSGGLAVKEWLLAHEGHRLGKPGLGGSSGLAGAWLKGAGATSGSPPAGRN
Description: The cDNA cloning and overexpression of the human ATase has been reported previously^23. Purification of the recombinant proteins was achieved either by affinity chromatography through a DNA-cellulose column as described by Wilkinson et al.,^25, 26 or by DEAE-cellulose ion-exchange chromatography. For the latter, the ATase protein was partially purified by ammonium sulphate precipitation (30-60%) and dialysed against 10 mM Tris-HCl pH 7.5, 1 mM DTT, 2 mM EDTA, 10% glycerol, before loading on a DEAE-cellulose column. The ATase was then eluted with a 0-0.1 M NaCl gradient.
Compounds to be tested were dissolved in DMSO to a final concentration of 10 mM and diluted just before use in buffer I containing 1 mg/ml bovine serum albumin (IBSA). Recombinant ATase was diluted in IBSA and titrated in order that the reaction be conducted under ATase, and not substrate, limiting conditions. […] Following acid hydrolysis of the DNA as previously described^21 the [^3 H]-methylated protein was recovered and quantitated by liquid scintillation counting. Samples were typically assayed in duplicate and experiments repeated several times. I50 is the concentration of inactivator required to produce a 50% reduction in ATase activity.

[2] = Sensitivity of mammalian cells to the inactivators alone: V79 cells; type: cell-based, Chinese hamster; conditions: hamster, v79 cells; FIG. 5; read-out: growth inhibitory dose in V79 cells relative to I50 dose
Description: (§1) In order to assess the effects on cell growth alone, Xeroderma pigmentosum cells and Chinese Hamster V79 cells were exposed to increasing concentrations (up to 600 μM) of selected inactivators for 2 h at 37°. In some cases, the inactivators were allowed to undergo hydrolysis at 37° C. for 20 hours and then added to Raji cells in order to assess the extent to which the decomposition products of the agents might inhibit cell growth. After 6 days the extent of cell growth was determined as described above.

[3] = tested on: Chinese Hamster V79 cells; test: as above; type: cell-based
Description: as §1

[4] = Sensitivity of mammalian cells to the inactivators alone: XP cells; type: cell-based, human; conditions: human, xp cells; FIG. 6; read-out: dose required for growth inhibition relative to that required for ATase inactivation
Description: as §1

[5] = tested on: Xeroderma pigmentosum cells; test: as above; type: cell-based, human; conditions: inactivator alone (FIG. 6)
Description: as §1

[6] = tested on: ATase; test: Inactivation of ATase in mammalian cells, summary over human, rat and Chinese hamster cell lines; type: cell-based; conditions: Table 5
Description: Mammalian cells were cultured under standard conditions. For example, Raji (a human lymphoblastoid cell line from a Burkitt's lymphoma) cells were grown in suspension culture in RPMI medium supplemented with 10% horse serum. […]
Cells were diluted to 10^6 /ml in culture medium containing either the appropriate concentration of inactivator or an equivalent volume of vehicle (DMSO). […] ATase activity was determined as described above, in duplicate sonicated cell extracts and expressed as the, percentage activity remaining based on that present in the untreated controls (for example 350-450 fm/mg in Raji cells).

Nc1nc(OCc2ccco2)c2nc[nH]c2n1 [B.4203, 0^6 -furfurylguanine]
ATase inactivation in vitro, result in words [1]: not as effective as BeG | selectivity ratio [2]: ≥ 100 | toxic concentration in V79 cells relative to concentration sensitizing to BCNU ([3]; FIGS. 5 & 6): at least 100 times | dose producing some growth inhibition of V79 cells ([3]; inactivator alone, 2 h (FIG. 5)): > 100 µM | growth inhibition / toxicity to V79 cells, in words ([3]; inactivator alone, up to 600 μM): toxic | selectivity ratio [4]: ≥ 100 | growth inhibition / toxicity to XP cells, in words [5]: toxic | effectiveness relative to BeG in the cell lines used [6]: up to 7 times
